Measured values from patent US11471448B2 (priority 2020, dated 2022).
Structures can show the parent of a compound that is named as a salt.

Columns and labels:
[1] = system: SARS-CoV-2 clinical isolate (2019-nCoV/USA-WA1/2020); assay: Anti-viral activity against SARS-CoV-2 in HBEC air-liquid-interface cultures (apical viral titer by TCID50); format: cell-based
[2] = system: patients with COVID-19 pneumonia; assay: Pilot study / compassionate use of opaganib in hospitalized COVID-19 pneumonia patients; format: in vivo, human
Text: Return to room air or a specific SpO2 oxygen saturation on room air. Assessment of on-treatment viral load changes, and changes in D-dimer, cardiac troponin, LDH and ferritin levels. Study Design:
Patients entered a screening period of up to 1 week. Eligible patients entered the treatment period for up to 2 weeks. All participants were followed for 2 weeks after their last dose of study drug, at the end of the 2 week treatment period, or once they had 2 consecutive daily negative viral swabs for the COVID-19 virus or at after premature drug discontinuation prior to Day 14. The maximum duration of study participation was 35 days […].
• 1. Adult male or female≥18 to ≤75 years of age, inclusive • 2. Proven COVID-19 infection and pneumonia not requiring mechanical ventilation or mechanically ventilated for no more than 24 hours at time of informed consent • 3. The patient, guardian or legally acceptable representative has signed a written IRB-approved informed consent. Key Exclusion Criteria: • 1. New York Heart Association Class III or IV, cardiac disease, myocardial infarction within the past 6 months, unstable arrhythmia, or evidence of ischemia on ECG • 2. Any co-morbidity that may add risk to the treatment in the judgement of the investigator. • 3. Pregnant (positive serum test) or nursing women • 4. Unwillingness or inability to comply with procedures required in this protocol. • 5. AST (SGOT) or ALT (SGPT)>2.5× upper limit of normal (ULN) • 6. Bilirubin>1.5×ULN (except where bilirubin increase is due to Gilbert's Syndrome) • 7. Serum creatinine>2.0×ULN • 8. Absolute neutrophil count<1000 cells/mm^3 • 9. Platelet count<75,000/mm^3 • 10. Hemoglobin<8.0 g/dL • 11. Currently taking warfarin, apixaban, argatroban or rivaroxaban • 12. Current drug or alcohol abuse Study Assessments: The following will be monitored daily (see Table 3): • Review of concomitant medications • Adverse Events • Physical exam • Vital signs (temperature, blood pressure, pulse rate, respiratory rate and oxygen saturation by pulse oximeter) • Clinical symptoms (cough, dyspnea, nausea, vomiting, diarrhea) • Nasopharyngeal viral swab • Serum chemistry • CBC with differential • Chest X-ray • Urinalysis
Each dose is administered with food or 15-30 minutes after tube-feeding, where appropriate.
These patients had moderate to severe COVID-19-related pneumonia with hypoxia on supplemental oxygen.
Five patients were included in the analysis, and for comparison purposes, we used a control group with same-sex, same-severity patients (baseline characteristics). Univariate comparisons between the groups were performed with chi-square test for categorical variables and t-test or MannWhitney U-test for continuous variables, as appropriate. Time variables were compared with Cox proportional hazard regression, adjusted for age and background illnesses. CRP and lymphocyte changes were compared utilizing a repeated measures general linear model with a Bonferroni correction for multiple comparison.

[3] = of 6 moderate-to-severe patients

`O=C(NCc1ccncc1)C12CC3CC(C1)CC(c1ccc(Cl)cc1)(C3)C2` [opaganib, 3-(4-chlorophenyl)-adamantane-1-carboxylic acid (pyridin-4-ylmethyl) amide, hydrochloride salt] was tested, and the “50% inhibition reached in the concentration range tested” value ([1]; 0.05 to 11.25 μg/ml) was “neither 50% inhibition nor 50% cytotoxicity were reached”, the “concentration from which complete inhibition of infectious virus production is seen” value ([1]; SARS-CoV-2-infected HBEC, 3 days incubation) was ≥ 1 µg/mL and the “HR, time to weaning from HFNC, cases vs. controls” value ([2]; 95% CI: 0.07-1.7, p=0.2, Cox regression adjusted for age and background illnesses) was 0.3. For the same molecule, the “HR, time to ambient air, cases vs. controls” value ([2]; 95% CI: 0.15-1.5) was 0.4, the “Lymphocytes, most recent” value ([2]; Patient 1 (14 d), baseline 1.6, 17 Apr. 2020) was 2.8 (17 Apr. 2020) 10^3/mm^3 and the “CRP, most recent” value ([2]; Patient 1 (14 d), baseline 15.1, 17 Apr. 2020) was 1 (17 Apr. 2020) mg/L. The “Clinical Assessment” value ([2]; Patient 1 (14 d on opaganib), started severe on maximal OptiFlow 3 Apr. 2020) was 3 Apr. 2020; RA by 16/4. As of 22/4, one negative, the “Lymphocytes, most recent” value ([2]; Patient 2 (14 d), baseline 1.1, 17 Apr. 2020) was 2.1 (17 Apr. 2020) 10^3/mm^3 and the “CRP, most recent” value ([2]; Patient 2 (14 d), baseline 14.2, 17 Apr. 2020) was 4.8 (17 Apr. 2020) mg/L. For the same molecule, the “Clinical Assessment” value ([2]; Patient 2 (14 d), started severe+, planning for intubation 7 Apr. 2020) was 7 Apr. 2020; RA by 20 Apr. 4 2020, D/C on, the “Lymphocytes, most recent” value ([2]; Patient 3 (7 d), baseline 0.9, 17 Apr. 2020) was 1.2 (17 Apr. 2020) 10^3/mm^3 and the “CRP, most recent” value ([2]; Patient 3 (7 d), baseline 10.7, 17 Apr. 2020) was 1.7 (17 Apr. 2020) mg/L. The “Clinical Assessment” value ([2]; Patient 3 (7 d), moderate-severe, on OptiFlow 13 Apr. 2020, RA by 17 Apr. 2020) was 17 Apr. 2020, D/C on 19 Apr. 2020, the “Lymphocytes, most recent” value ([2]; Patient 4 (11 d), baseline 1.2, 22 Apr. 2020) was 1 (22 Apr. 2020) 10^3/mm^3 and the “CRP, most recent” value ([2]; Patient 4 (11 d), baseline 24.8, 22 Apr. 2020) was 17.4 (22 Apr. 2020) mg/L. The “Clinical Assessment” value ([2]; Patient 4 (11 d), started severe+ 70% OptiFlow on 13 Apr. 2020) was “RA on 22 Apr. 2020”, the “Clinical Assessment” value ([2]; Patient 5 (2 d), started moderate on 13 Apr. 2020, nasal cannula, D/C on 14 Apr. 2020 on RA) was “Dramatic improvement after one day on” and the “Lymphocytes, most recent” value ([2]; Patient 6 (5 d), baseline 1.35, 24 Apr. 2020) was 1.96 (24 Apr. 2020) 10^3/mm^3. For the same molecule, the “CRP, most recent” value ([2]; Patient 6 (5 d), baseline 12.2, 24 Apr. 2020) was 6.8 (24 Apr. 2020) mg/L, the “adverse event leading to discontinuation” value ([2]; Patient 7 (1 d), also on HCQ and azithromycin, may or may not be related to opaganib) was “opaganib started. Diarrhea the next day, all 3 meds were stopped, followed by worsening SOB, on 75% OptiFlow” and the “C-Reactive Protein (CRP)” value ([2]; all six patients) was “reduction”. For the same molecule, the “clinical improvement, including reduced supplemental oxygenation and higher lymphocyte counts” value ([2]; all six patients) was “measurable clinical improvement”, the “median time to weaning from high-flow nasal cannula (HFNC)” value ([2]; cases, controls 15 days) was 10 days and the “cases requiring mechanical ventilation” value ([2]; compared with 33% of controls) was “none”. The “lymphocyte count change vs. matched controls” value ([2]; five patients vs. same-sex, same-severity control group) was “significantly faster increase”, the “patients back to breathing room air” value [2, 3] was 5 patients and the “patients discharged from hospital” value [2, 3] was 3 patients. For the same molecule, the “moderate to-severe patients improved significantly” value ([2]; of 6 patients treated (patient #7 excepted), opaganib plus standard-of-care) was 6 patients.
